We go through four compounds from patent US20080090788A1, “Chemical Compounds” (priority 2005, published 2008).

Structures are written as SMILES.

The assay deals with Hepatic stellate cells (HSC). Kind of assay: HSC apoptosis by acridine orange staining. The assay is classed as cell-based, rat. The note with it: for degree of HSC apoptosis compared with SFZ 1 mM: 3a 0.150 mM, 3e 0.127 mM, 3f 0.089 mM (approximately 5-fold lower concentrations). As to the method:
To determine the effects of SFZ analogues on HSC survival, activated HSC were treated for 24 hrs with SFZ or analogues, and apoptotic HSC were visualised by staining with Acridine orange (1 μg/ml in 10 mM 4-(2-hydroxyethyl)-1-piperazineethanesulfonic acid (Hepes) buffer, pH7.4). The proportion of apoptotic cells in five random fields were counted in duplicate wells at x20 magnification using a fluorescein isothiocyanate filter. Apoptosis of HSC measured by acridine orange correlates closely with activation of caspase 3.
In addition to its role in malignant cells, NF-kB is required for survival of HSC, which play a key role in the pathogenesis of chronic liver disease. The ability of SFZ and analogues to induce HSC apoptosis was also compared. SFZ (1 mM) increased apoptosis ˜4.5-fold in cultured rat HSC (FIG. 5b). […] Therefore, the SFZ analogues with improved NF-kB-inhibiting activity are also relatively potent inducers of HSC apoptosis.
(A) CLL cells from three different patients were cultured in the presence of SFZ or compounds 3a and 3f (all at 0.5 mM), or DMSO as a solvent control. After 6 hours, the degree of PARP cleavage was determined as a measure of apoptosis. […] Note that compound 3f was not tested in cells from patient 3. (B) HSC were cultured in the presence of SFZ (1 mM), compounds 3a (0.150 mM), 3e (0.127 mM), 3f (0.089 mM), or DMSO as a solvent control. Analogues were used at the concentration that gave 50% inhibition of NF-kB transcriptional activity in U937 cells. After 20 hours, the proportion of apoptotic cells were visualised by acridine orange staining. Apoptotic cells were counted in five fields in duplicate for each concentration, in two independent experiments and results expressed as mean ±SEM,

Regarding `COc1ccc(CNS(=O)(=O)c2ccc(/N=N/c3ccc(O)c(C(=O)O)c3)cc2)cc1` [Compound 3a, 2-hydroxy-5-[4-(4-methoxy-benzylsulfamoyl)-phenylazo]-benzoic acid], the “degree of HSC apoptosis compared with SFZ 1 mM” value (shortened to “degree … compared with SFZ 1 mM”) was “approximately the same degree of apoptosis”.
As for `Cc1cc(/N=N/c2ccc(S(=O)(=O)NCc3ccc(C(F)(F)F)cc3)cc2)cc(C(=O)O)c1O` [Compound 3e, 2-hydroxy-3-methyl-5-[4-(4-trifluoromethyl-benzylsulfamoyl)-phenylazo]-benzoic acid], the “degree … compared with SFZ 1 mM” value is “approximately the same degree of apoptosis”.
On to `O=C(O)c1cc(/N=N/c2ccc(S(=O)(=O)NCc3ccc(C(F)(F)F)cc3)cc2)ccc1O` [Compound 3f, 2-hydroxy-5-[4-(4-trifluoromethyl-benzylsulfamoyl)-phenylazo]-benzoic acid], for which the “degree … compared with SFZ 1 mM” value is on record as “approximately the same degree of apoptosis”.
As for `O=C(O)c1cc(/N=N/c2ccc(S(=O)(=O)Nc3ccccn3)cc2)ccc1O` [SFZ, Sulfasalazine, reference compound], under “SFZ 1 mM, cultured rat HSC”, the “increase in apoptosis of cultured HSC” value is on record as around 4.5 fold.
